Assay results reported in patent US7998950B2, “Antiviral compounds” (Gilead Sciences, Inc., priority 2008, dated 2011).
Like-named read-outs stand apart in the source and are kept apart here.

Test system: HIV-IIIb
Assay: Antiviral assay in MT-2 cells infected with HIV-IIIb
Assay type: cell-based
[1] = Human immunodeficiency virus 1, IIIB, MT2, 120 h, MT-2 cells infected with HIV-IIIb, m.o.i. 0.01, 10% FBS, 5 days at 37° C., CellTiter-Glo chemiluminescence, read-out: EC50 in MT-2 cells
[2] = MT-2 cells infected with HIV-IIIb, m.o.i. 0.01, 10% FBS, 5 days at 37° C., CellTiter-Glo chemiluminescence, read-out: EC50 in MT-2 cells
[3] = Human immunodeficiency virus 1, IIIB, MT2, 120 h, read-out: EC50 in MT-2 cells (nM)

EC50 [1] [nM]	Structure (SMILES)	further results
5.7	CNC(=O)c1c(O)c2ncc(Cc3ccc(F)cc3)c3c2n(c1=O)CC(C(=O)N(C)C)O3 (stereo not drawn) [A-35]	–
8	CNC(=O)C1=Cn2c(=O)c(C(=O)NC)c(O)c3ncc(Cc4ccc(F)cc4)c(c32)O1 [A-82]	–
5.1	CNC(=O)c1c(O)c2ncc(Cc3ccc(F)cc3)c3c2n(c1=O)C[C@H](CN(C)C(C)=O)O3 [Example 209]	–
0.1	CNC(=O)c1c(O)c2ncc(Cc3ccc(F)cc3)c3c2n(c1=O)C[C@@H](CN(C)S(C)(=O)=O)O3 [Example 206]	–
1.7	CNC(=O)c1c(O)c2ncc(Cc3ccc(F)cc3)c3c2n(c1=O)C[C@@H](CO)O3 [A-67]	–
32	CNC[C@H]1Cn2c(=O)c(C(=O)NC)c(O)c3ncc(Cc4ccc(F)cc4)c(c32)O1 [Example 197]	–
4.6	CNC(=O)c1c(O)c2ncc(Cc3ccc(F)cc3)c3c2n(c1=O)C[C@@H](CN(C)C(=O)c1nnc(C)o1)O3 [Example 207]	–
2.4	CNC(=O)c1c(O)c2ncc(Cc3ccc(F)cc3)c3c2n(c1=O)C[C@@H](C(=O)NCC(C)(C)C#N)O3 [Example 175]	–
12	CNC(=O)c1c(O)c2ncc(Cc3ccc(F)cc3)c3c2n(c1=O)C[C@@H](CN(C)CCO)O3 [Example 202]	–
4	CNC(=O)c1c(O)c2ncc(Cc3ccc(F)cc3)c3c2n(c1=O)C[C@H](CO)O3 [A-69]	–
6.8	CNC(=O)c1c(O)c2ncc(Cc3ccc(F)cc3)c3c2n(c1=O)C[C@H](C(=O)NC)O3 [A-50]	–
25.6	CNC(=O)[C@@H]1Cn2c(=O)c(C(N)=O)c(O)c3ncc(Cc4ccc(F)cc4)c(c32)O1 [Example 167]	–
0.6	CNC(=O)c1c(O)c2ncc(Cc3ccc(F)cc3)c3c2n(c1=O)C[C@H](CN(C)S(C)(=O)=O)O3 [Example 208]	–
5.3	CNC(=O)c1c(O)c2ncc(Cc3ccc(F)cc3)c3c2n(c1=O)C=C(C(=O)NCCOC)O3 [Example 113]	–
16	O=C(NCCO)c1c(O)c2ncc(Cc3ccc(F)cc3)c3c2n(c1=O)CC(CO)O3 (stereo not drawn) [A-26]	–
23.2	CNC(=O)[C@@H]1Cn2c(=O)c(C(=O)NCCO)c(O)c3ncc(Cc4ccc(F)cc4)c(c32)O1 [Example 176]	–
12	CNC(=O)c1c(O)c2ncc(Cc3ccc(F)cc3)c3c2n(c1=O)C[C@@H](C(N)=O)O3 [Example 168]	–
1.1	CNC(=O)c1c(O)c2ncc(Cc3ccc(F)cc3)c3c2n(c1=O)C[C@@H](CNC(C)=O)O3 [Example 200]	–
5.8	CNC(=O)c1c(O)c2ncc(Cc3ccc(F)cc3)c3c2n(c1=O)CCN3 [compound 37]	–
51	O=C(NCCCN1CCCC1)c1c(O)c2ncc(Cc3ccc(F)cc3)c3c2n(c1=O)CC(CO)O3 (stereo not drawn) [A-28]	–

Continued, compound first:

Structure (SMILES)	EC50 [1] [nM]	further results
COCCNC(=O)c1c(O)c2ncc(Cc3ccc(F)cc3)c3c2n(c1=O)CCCN3 [compound 52]	8	–
CNC(=O)c1c(O)c2ncc(Cc3ccc(F)c(Cl)c3)c3c2n(c1=O)C=C(C(=O)NCC(C)(C)C#N)O3 [Example 118]	0.7	–
CCN(CC)C(=O)C1=Cn2c(=O)c(C(=O)NC)c(O)c3ncc(Cc4ccc(F)cc4)c(c32)O1 [A-91]	–	EC50 [2]: 10 nM
CC(C)(C#N)CNC(=O)C1=Cn2c(=O)c(C(=O)NC3CC3)c(O)c3ncc(Cc4ccc(F)cc4)c(c32)O1 [Example 135]	2.7	–
CCNC(=O)C1=Cn2c(=O)c(C(=O)NCCOC)c(O)c3ncc(Cc4ccc(F)cc4)c(c32)O1 [Example 104]	3	–
COCCNC(=O)c1c(O)c2ncc(Cc3ccc(F)cc3)c3c2n(c1=O)CCN3 [compound 33]	3.3	–
O=C(NCC1(CO)CCC1)c1c(O)c2ncc(Cc3ccc(F)cc3)c3c2n(c1=O)CC(F)(F)CN3 [Example 150]	6	–
CCN(CC)C(=O)C1=Cn2c(=O)c(C(=O)NCCOC)c(O)c3ncc(Cc4ccc(F)cc4)c(c32)O1 [Example 105]	71	–
CNC(=O)c1c(O)c2ncc(Cc3ccc(F)cc3)c3c2n(c1=O)C=C(C(=O)N1CCOCC1(C)C)O3 [Example 107]	25	–
CNC(=O)c1c(O)c2ncc(Cc3ccc(F)cc3)c3c2n(c1=O)C=C(c1nnc(C)o1)O3 [Example 130]	–	EC50 [3]: 4.6 nM
N#CCCNC(=O)c1c(O)c2ncc(Cc3ccc(F)cc3)c3c2n(c1=O)C=C(C(=O)N1CCCCC1)O3 [Example 132]	37.4	–
CNC(=O)c1c(O)c2ncc(Cc3ccc(F)cc3)c3c2n(c1=O)C=C(C(=O)NCCOC(F)(F)F)O3 [Example 141]	3.7	–
CCNC(=O)c1c(O)c2ncc(Cc3ccc(F)cc3)c3c2n(c1=O)CC(F)(F)CN3 [A-12]	3	–
N#CCCCNC(=O)c1c(O)c2ncc(Cc3ccc(F)cc3)c3c2n(c1=O)CC(F)(F)CN3 [A-17]	2.5	–
CNC(=O)c1c(O)c2ncc(Cc3ccc(F)cc3)c3c2n(c1=O)C[C@@H](CN(C)S(=O)(=O)N(C)C)O3 [Example 210]	–	EC50 [3]: 5 nM
O=C(NCCN1CCOCC1)c1c(O)c2ncc(Cc3ccc(F)cc3)c3c2n(c1=O)CCN3 [compound 35]	5.5	–
O=C(NCCCN1CCCC1)c1c(O)c2ncc(Cc3ccc(F)cc3)c3c2n(c1=O)CC(F)(F)CN3 [Example 151]	23	–

Structure (SMILES)	EC50 [1] [nM]	further results
CN1CCn2c(=O)c(C(=O)NCCO)c(O)c3ncc(Cc4ccc(F)cc4)c1c32 [compound 45]	2	–
CNC(=O)c1c(O)c2ncc(Cc3ccc(F)cc3)c3c2n(c1=O)CC(CO)(CO)O3 [A-109]	–	EC50 [2]: 7.1 nM
CNC(=O)c1c(O)c2ncc(Cc3ccc(F)cc3)c3c2n(c1=O)C=C(C(=O)NCC(C)(C)C#N)O3 [Example 134]	2.5	–
COCCNC(=O)c1c(O)c2ncc(Cc3ccc(F)cc3)c3c2n(c1=O)C=C(C(=O)NCC1(O)CC1)O3 [Example 106]	6	–
[2H]C([2H])([2H])NC(=O)c1c(O)c2ncc(Cc3ccc(F)cc3)c3c2n(c1=O)C=C(C(=O)NCC)O3 [Example 116]	2.5	–
O=C(NCCN1CCNC1=O)c1c(O)c2ncc(Cc3ccc(F)cc3)c3c2n(c1=O)CCO3 [compound 14]	5.5	–
CNC(=O)C1=Cn2c(=O)c(C(=O)NCCC#N)c(O)c3ncc(Cc4ccc(F)cc4)c(c32)O1 [A-88]	18	–
O=C(NCC1(CO)CC1)c1c(O)c2ncc(Cc3ccc(F)cc3)c3c2n(c1=O)CC(F)(F)CN3 [Example 152]	7	–
CC(C)(O)CNC(=O)c1c(O)c2ncc(Cc3ccc(F)cc3)c3c2n(c1=O)CC(F)(F)CN3 [A-14]	7	–
O=C(NC1CC1)c1c(O)c2ncc(Cc3ccc(F)cc3)c3c2n(c1=O)CCN3 [compound 36]	3.5	–
CC1(C)Cn2c(=O)c(C(=O)NCCO)c(O)c3ncc(Cc4ccc(F)cc4)c1c32 [compound 59]	85	–
CNC(=O)c1c(O)c2ncc(Cc3ccc(F)cc3)c3c2n(c1=O)C=C(C(=O)NCC1(C#N)CC1)O3 [Example 138]	1.5	–
Cn1cnnc1CCNC(=O)c1c(O)c2ncc(Cc3ccc(F)cc3)c3c2n(c1=O)CC(F)(F)CN3 [Example 148]	45.6	–
CC(C)(CO)CNC(=O)c1c(O)c2ncc(Cc3ccc(F)cc3)c3c2n(c1=O)CC(F)(F)CN3 [Example 145]	9	–
O=C(NCCO)c1c(O)c2ncc(Cc3ccc(F)cc3)c3c2n(c1=O)CC(F)(F)CN3 [compound 79]	7	–
O=C(NCCCN1CCCC1=O)c1c(O)c2ncc(Cc3ccc(F)cc3)c3c2n(c1=O)CCN3 [compound 34]	9.5	–
CNC(=O)c1c(O)c2ncc(Cc3ccc(F)cc3)c3c2n(c1=O)C=C(C(=O)NCC1(O)CCCCC1)O3 [Example 142]	1.9	–
